The record followed here is patent EP3797781A1, “USE OF EC-7072 AND SYNERGIC COMPOSITIONS THEREOF IN TREATMENT OF CHRONIC LYMPHOCYTIC LEUKEMIA” (priority 2019, dated 2021).

This assay relates to isolated leukemia cells from patients with CLL. In words: qPCR analysis of gene expression in isolated leukemia cells. In kind it is cell-based, human. Particulars: 6 hours. As for the experimental part: Isolated leukemia cells from patients with CLL were incubated with EC-7072 (200 nM) or DMSO for 6 hours. Total RNA was extracted using RNeasy Mini Kit (Qiagen). 2 µg total RNA were used for cDNA synthesis using High-Capacity cDNA Reverse Transcription Kit (Applied Biosystems). Quantitative RT-PCR was performed using SYBR Green PCR Master Mix (Applied Biosystems) in a 7300 Real-Time PCR System and each sample was analyzed in triplicate. Table 1. Primers used in qPCR
Expression of BCR-related genes was analyzed by qPCR in isolated CLL leukemia cells (n = 6) exposed to 200 nM EC-7072 for 6 hours (Figure 6A).
Expression of relevant genes that regulate apoptosis in CLL was analyzed by qPCR in isolated leukemia cells from patients with CLL (n = 6) exposed to 200 nM EC-7072 for 6 hours, to obtain the mean relative expression to the control (DMSO) control condition (Figure 6D).
The dysregulation of BCL2 expression in primary CLL by EC-7072 was evaluated by: • (i) incubating isolated CLL cells (n = 6) from patients with CLL following treatment with EC-7072 (200 nM) for 6 hours and extracting total RNA. Relative expression of BLC2 was determined by qPCR to obtain the mean relative expression to the control (DMSO) condition (Figure 6F); • (ii) incubating isolated CLL cells (n = 6) following treatment with 200 nM EC-7072 for 12 and 18 hours. BCL2 levels were evaluated by intracellular flow cytometry (Figure 6G); • (iii) incubating isolated T cells (n = 3) from patients with CLL following treatment with EC-7072 (200 nM) for 6 hours and extracting total RNA. Relative expression of BLC2 was determined by qPCR to obtain the mean relative expression to the control (DMSO) condition (Figure 6H); • (iv) incubating PBMCs (Figure 6I) and isolated T cells (Figure 6J) from patients with CLL (n = 3) following treatment with 200 nM EC-7072 for 24 hours. T-cell death and apoptosis were assessed by DiOC6(3)/PI staining to obtain percentages of viable [DiOC6(3)^+] cells and the mean percentages of apoptotic [DiOC6(3)^low PI^-] and dead [PI^+] cells. […]
In general terms: Quantitative PCR measures a nucleic acid by following its amplification.

Turning to `CO[C@@H]([C@@H]1Cc2cc3cc(O[C@H]4C[C@@H](O[C@H]5C[C@@H](O)[C@H](O)[C@@H](C)O5)[C@H](O)[C@@H](C)O4)c(C)c(O)c3c(O)c2C(=O)[C@H]1O[C@H]1C[C@@H](O[C@H]2C[C@@H](O[C@H]3C[C@](C)(O)[C@H](O)[C@@H](C)O3)[C@@H](O)[C@@H](C)O2)[C@H](O)[C@@H](C)O1)[C@@H](O)C(C)=O` [EC-7072, mithramycin SK], under “200 nM, RNA-seq, validated by qPCR (n = 6)”, the “expression of genes required for functional BCR signaling (CD79B, SYK, LYN, PIK3CD, PLCG2, CARD11)” value is “broad downregulation”. Besides, the “gene expression of BCL2” value (200 nM, isolated CLL cells (n = 6)) is “significantly downregulated”. Further, the “expression of BCL2 upon BCR activation” value (EC-7072 200 nM in combination with α-IgM (10 µg/mL), n = 4) is on record as “restore the expression of BCL2 to basal levels”.
